Patent US20210348164A1, “ENDOGENOUS CYTOPLASMIC ALU COMPLEMENTARY DNA IN AGE-RELATED MACULAR DEGENERATION” (University of Virginia Patent Foundation, priority 2018, published 2021)
“Also recorded” adds a separate entry of the source.

Legend:
NLRP3 inflammasome = test: Caspase-1 activation in bone marrow-derived macrophages treated with LPS and ATP (immunoblot); format: cell-based; settings: primary mouse BMDM; LPS and ATP stimulation
Method: Western blotting. Cells and tissue were homogenized in RIPA buffer (Sigma-Aldrich) with protease and phosphatase inhibitors (Roche) or lysed directly in Laemmli buffer. Protein concentration was determined using Pierce BCA Protein Assay Kit (Thermo Fisher Scientific). Equal quantities of protein (10-50 μg) prepared in Laemmli buffer were resolved by SDS-PAGE on NOVEX® Tris-Glycine Gels (Invitrogen), or MINI-PROTEAN® TGX™ Precast Protein Gels (Bio-Rad Laboratories, Inc., Hercules, Calif., United States of America) and transferred onto Immobilon-FL PVDF membranes (0.2 or 0.45 μm; MilliporeSigma, Burlington, Mass., United States of America). The transferred membranes were blocked in ODYSSEY® Blocking Buffer (PBS) for 1 hour at room temperature and then incubated with primary antibody at 4° C. overnight. Immunoreactive bands were visualized using species-specific secondary antibodies conjugated with IRDYE®. The blot images were captured on ODYSSEY® imaging systems. […]

[1] = tested on: Alu cDNA in primary human RPE cells; test: Alu cDNA in primary human RPE cells (Alu c-PCR, real-time PCR, in situ hybridization, equator blotting); format: cell-based; settings: primary human RPE cells exposed to Alu RNA, heat shock, or DICER1 AS; NNRTIs at high doses
Method: Cell culture and transfection. Primary mouse and human RPE cells were isolated as previously described (Kerur et al., 2018). All cells were maintained at 37° C. in a 5% CO2 environment. Mouse RPE cells were cultured in DMEM supplemented with 20% FBS and penicillin/streptomycin antibiotics at standard concentrations; primary human RPE cells were maintained in DMEM supplemented with 10% FBS and antibiotics. The human RPE cell line ARPE19 was cultured as previously described (Kerur et al., 2018) and maintained in DMEM-F12 containing penicillin/streptomycin, Fungizone, and gentamicin. HEK293T cells were cultured in DMEM with 10% fetal bovine serum (FBS) with 100 U/ml penicillin/streptomycin and 2 mM L-glutamine. Primary wild-type mouse bone marrow-derived macrophages (BMDMs) were isolated, and cultured in Iscove's Modified Dulbecco's Medium (IMDM) supplemented with 30% L929 supernatant containing macrophage-stimulating factor, nonessential amino acids, sodium pyruvate, 10% FBS and antibiotics, 50 μM β-mercaptoethanol (Seo et al., 2015), and serum starved in IMDM with 1% FBS and 100 U/ml penicillin/streptomycin overnight prior to LPS stimulation. NRTIs or NNRTIs were added 30 minutes prior to LPS stimulation and again 30 minutes prior to ATP activation. LPS (100 ng/mL) was added for 3-4 hours prior to the addition of ATP. Cell lysates were collected 30 minutes after addition of ATP (5 mM). Primary human subcutaneous pre-adipocytes (Catalogue No. PCS-210-010, ATCC, Manassas, Va., United States of America) and primary human dermal fibroblasts (Catalogue No. PCS-201-012, ATCC) were grown in fibroblast basal medium with fibroblast growth kit for low serum (ATCC).
Umbilical artery vascular smooth muscle cells (Catalogue No. CC-2579, Lonza, Morristown, N.J., United States of America) were grown in SMGM™-2 Smooth Muscle Growth Medium-2 BULLETKIT™ (Lonza). Primary human skeletal myoblasts (Catalogue No. A11440, Thermo Fisher Scientific) were grown in DMEM with 2% horse serum. Primary human epidermal keratinocytes (Catalogue NO. CO215C, Thermo Fisher Scientific) were grown in EPILIFE® Medium (Thermo Fisher Scientific). Human umbilical vein endothelial cells (HUVEC) were grown in HUVEC EGM™-2 Media (Lonza). Primary human peripheral blood mononuclear cells (Catalogue NO. PCS-800-011, ATCC) were directly used without culture for experiments. RPMI 1640 medium with 10% human serum with human GM-CSF (Miltenyi Biotec Inc., Auburn, Calif., United States of America) was used as media during the experiment. Transfections were performed according to the manufacturer's instructions (LIPOFECTAMINE® 2000, Invitrogen). For transfection of primary human peripheral blood mononuclear cells, HiPerFect Transfection Reagent (Qiagen) was used as previously described (Troegeler et al., 2014). NRTIs were administered 60 minutes before transfection and added again upon replacement of media at 8 hours. To induce acid injury or osmotic stress, primary human RPE cells were treated with HCl (pH 4.0 media) or H2O for 30 minutes, 1 hour, and 2 hours at 37° C. in 5% CO2, respectively. NIH3T3 Tet-ON cells were cultured in DMEM with 10% tetracycline-free fetal bovine serum (FBS) with 100 U/ml penicillin/streptomycin. NIH3T3 Tet-ON cells were transfected with pLD401 (see Taylor et al., 2013; gift of J. D. Boeke, Institute for Systems Genetics, NYU Langone Health, New York, New York, United States of America) and human L1 ORF1p abundance was monitored after 24 hours of doxycycline induction. […]

[2] = tested on: Alu RNA-induced RPE degeneration; test: Alu RNA-induced RPE degeneration in wild-type mice (fundus photography, ZO-1 flat mounts); format: in vivo, mouse; settings: WT mice; intravitreous; low (25 μmol) doses
[3] = tested on: Alu G25C RNA-induced RPE degeneration; test: Alu G25C RNA-induced RPE degeneration in wild-type mice; format: in vivo, mouse; settings: WT mice; subretinal Alu G25C RNA

| Compound | caspase-1 activation / NLRP3 inflammasome activation (NLRP3 inflammasome) | Alu cDNA induction [1] | Alu RNA-induced RPE degeneration [2] | Alu G25C RNA-induced RPE degeneration [3] |
| --- | --- | --- | --- | --- |
| Cc1ccnc2c1NC(=O)c1cccnc1N2C1CC1 [NVP, nevirapine] | does not inhibit | did not prevent Alu cDNA synthesis | did not prevent Alu RNA-induced RPE degeneration at low or high doses |  |
| CC(C)Nc1cccnc1N1CCN(C(=O)c2cc3cc(NS(C)(=O)=O)ccc3[nH]2)CC1 [DLV, delavirdine] | did not inhibit NLRP3 inflammasome activation | prevented Alu cDNA synthesis; also recorded: reduced | did not block Alu RNA-induced RPE degeneration at low doses |  |
| L1 siRNA: siRNA targeting L1; cholesterol-conjugated mouse L1 siRNA (SEQ ID NOs: 48 and 49) in vivo, human L1 siRNA sequences in human cells (chain 1 ACUAUUACUCUGAUACCTT; chain 2 UGUACUAAGGUCAAAUCTT; cholesterol conjugated, position not given here) |  | prevented the production of Alu cDNA; also recorded: reduced |  | prevented Alu G25C RNA-induced RPE degeneration |
| O=C1Nc2ccc(Cl)cc2[C@@](C#CC2CC2)(C(F)(F)F)O1 [EFV, efavirenz] | did not inhibit NLRP3 inflammasome activation | prevented Alu cDNA synthesis; also recorded: reduced | did not block Alu RNA-induced RPE degeneration at low doses |  |
